pEC50: −log10 of the molar value.
Columns and labels:
Format in all cases: cell-based
[1] = target: T1, PPARγ (Homo sapiens, UniProt P37231); test: PPAR-gamma EC50, functional cell (transactivation) assay
T1 construct: expressed in transfected cells; host or cells: CV-1 cells
T1 sequence (P37231 238-503 limits assumed): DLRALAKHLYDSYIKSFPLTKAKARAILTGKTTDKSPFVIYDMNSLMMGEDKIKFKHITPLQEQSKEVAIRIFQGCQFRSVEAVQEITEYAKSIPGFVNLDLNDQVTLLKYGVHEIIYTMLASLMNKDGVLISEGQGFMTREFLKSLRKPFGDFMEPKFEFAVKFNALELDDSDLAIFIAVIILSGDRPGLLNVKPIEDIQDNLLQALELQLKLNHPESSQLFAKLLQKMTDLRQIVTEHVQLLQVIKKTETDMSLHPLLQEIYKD
Source text: (§1) The following transfection assay methods are provided by way of example only. Compounds may be screened for functional potency in transient transfection assays in CV-1 cells for their ability to activate the PPAR subtypes (transactivation assay). A previously established chimeric receptor system was utilized to allow comparison of the relative transcriptional activity of the receptor subtypes on the same target gene and to prevent endogenous receptor activation from complicating the interpretation of results. See, for example, Lehmann, J. M.; Moore, L. B.; Smith-Oliver, T. A; Wilkinson, W. O.; Willson, T. M.; Kliewer, S. A., An antidiabetic thiazolidinedione is a high affinity ligand for peroxisome proliferator-activated receptor γ(PPARγ), J. Biol. Chem., 1995, 270, 12953-6. The ligand binding domains for murine and human PPAR-alpha, PPAR-gamma, and PPAR-delta are each fused to the yeast transcription factor GAL4 DNA binding domain. CV-1 cells were transiently transfected with expression vectors for the respective PPAR chimera along with a reporter construct containing five copies of the GAL4 DNA binding site driving expression of secreted placental alkaline phosphatase (SPAP) and p-galactosidase. After 16 h, the medium is exchanged to DME medium supplemented with 10% delipidated fetal calf serum and the test compound at the appropriate concentration. After an additional 24 h, cell extracts are prepared and assayed for alkaline phosphatase and pgalactosidase activity. Alkaline phosphatase activity was corrected for transfection efficiency using the p-galactosidase activity as an internal standard (see, for example, Kliewer, S. A., et. al. Cell 1995, 83, 813-819. Rosiglitazone is used as a positive control in the hPPARγ assay. The positive control in the hPPAR-alpha and hPPAR-delta assays was 2-[4-(2-(3-(4-fluorophenyl)-1heptylureido)ethyl)-phenoxy]-2-methylpropionic acid, which can be prepared as described in Brown, Peter J., et. al. Synthesis (7), 778-782 (1997), or patent publication WO 9736579.
(§2) Compounds of Examples 1-41 were assayed to measure their biological activity with respect to their EC50 values and efficacy for modulating PPAR-alpha, PPAR-gamma, and PPAR-delta as set forth in Table 2.

[2] = target: T2, PPARα (Homo sapiens, UniProt Q07869); test: PPAR-alpha EC50, functional cell (transactivation) assay
T2 construct: expressed in transfected cells; host or cells: CV-1 cells
T2 sequence (Q07869 239-466 limits assumed): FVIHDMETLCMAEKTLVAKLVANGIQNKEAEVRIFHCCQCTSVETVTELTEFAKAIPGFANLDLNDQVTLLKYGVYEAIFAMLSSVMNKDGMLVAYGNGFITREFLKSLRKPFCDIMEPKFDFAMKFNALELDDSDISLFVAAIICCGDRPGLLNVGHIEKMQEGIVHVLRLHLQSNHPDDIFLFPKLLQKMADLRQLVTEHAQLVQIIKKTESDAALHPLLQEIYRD
Source text: as §1, §2

[3] = target: T3, PPARδ (Homo sapiens, UniProt Q03181); test: PPAR-delta EC50, functional cell (transactivation) assay
T3 construct: expressed in transfected cells; host or cells: CV-1 cells
T3 sequence (Q03181 211-439 limits assumed): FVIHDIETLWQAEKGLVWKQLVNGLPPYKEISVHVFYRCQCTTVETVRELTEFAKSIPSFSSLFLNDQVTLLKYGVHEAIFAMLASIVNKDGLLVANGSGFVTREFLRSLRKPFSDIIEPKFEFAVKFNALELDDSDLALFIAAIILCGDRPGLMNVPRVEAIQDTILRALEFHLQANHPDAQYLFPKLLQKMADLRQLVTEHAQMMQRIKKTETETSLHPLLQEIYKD
Source text: as §1, §2

SMILES	pEC50 [1]	pEC50 [2]	pEC50 [3]
Cc1cc(S(=O)(=O)N2CCN(c3ccc([N+](=O)[O-])cc3)CC2)ccc1OC(C)(C)C(=O)O	4.00 to 6.00	< 4.00	4.00 to 6.00
Cc1cc(S(=O)(=O)N2CCN(c3ccc(F)cc3)CC2)ccc1OC(C)(C)C(=O)O	4.00 to 6.00	< 4.00	> 6.00
Cc1cc(S(=O)(=O)N2CCN(c3ccc(C#N)cc3)CC2)ccc1OC(C)(C)C(=O)O	< 4.00	< 4.00	4.00 to 6.00
Cc1cc(S(=O)(=O)N2CCN(C3CCCCC3)CC2)ccc1OC(C)(C)C(=O)O	< 4.00	< 4.00	4.00 to 6.00
CCOc1ccccc1N1CCN(S(=O)(=O)c2ccc(OC(C)(C)C(=O)O)c(C)c2)CC1	4.00 to 6.00	4.00 to 6.00	4.00 to 6.00
COc1ccc(N2CCN(S(=O)(=O)c3ccc(OC(C)(C)C(=O)O)c(C)c3)CC2)cc1OC	4.00 to 6.00	4.00 to 6.00	4.00 to 6.00
Cc1cc(S(=O)(=O)N2CCN(C/C=C/c3ccccc3)CC2)ccc1OC(C)(C)C(=O)O	4.00 to 6.00	< 4.00	4.00 to 6.00
Cc1ccc(N2CCN(S(=O)(=O)c3ccc(OC(C)(C)C(=O)O)c(C)c3)CC2)c(C)c1	4.00 to 6.00	< 4.00	4.00 to 6.00
COc1ccc(N2CCN(S(=O)(=O)c3ccc(OC(C)(C)C(=O)O)c(C)c3)CC2)cc1	4.00 to 6.00	< 4.00	4.00 to 6.00
Cc1cc(S(=O)(=O)N2CCN(CCc3ccccc3)CC2)ccc1OC(C)(C)C(=O)O	< 4.00	< 4.00	4.00 to 6.00
CC(C)(Oc1ccc(S(=O)(=O)N2CCN(c3cccc(C(F)(F)F)c3)CC2)cc1)C(=O)O	4.00 to 6.00	< 4.00	4.00 to 6.00
Cc1cc(S(=O)(=O)N2CCN(c3ccc(Cl)cc3)CC2)ccc1OC(C)(C)C(=O)O	4.00 to 6.00	< 4.00	> 6.00
Cc1cc(S(=O)(=O)N2CCN(c3ccccc3F)CC2)ccc1OC(C)(C)C(=O)O	4.00 to 6.00	< 4.00	> 6.00
Cc1cc(S(=O)(=O)N2CCN(Cc3ccc(F)cc3)CC2)ccc1OC(C)(C)C(=O)O	4.00 to 6.00	< 4.00	4.00 to 6.00
Cc1cc(S(=O)(=O)N2CCN(CC3CCCCC3)CC2)ccc1OC(C)(C)C(=O)O	4.00 to 6.00	< 4.00	4.00 to 6.00
Cc1cc(S(=O)(=O)N2CCN(C(c3ccccc3)c3ccc(Cl)cc3)CC2)ccc1OC(C)(C)C(=O)O (stereo not drawn) [drawing 127]	4.00 to 6.00	4.00 to 6.00	4.00 to 6.00
Cc1cc(S(=O)(=O)N2CCN(c3ccccc3Cl)CC2)ccc1OC(C)(C)C(=O)O	4.00 to 6.00	< 4.00	4.00 to 6.00
Cc1cccc(N2CCN(S(=O)(=O)c3ccc(OC(C)(C)C(=O)O)c(C)c3)CC2C)c1 (stereo not drawn)	4.00 to 6.00	< 4.00	> 6.00
Cc1cc(S(=O)(=O)N2CCN(c3ccc(C(F)(F)F)cc3[N+](=O)[O-])CC2)ccc1OC(C)(C)C(=O)O	4.00 to 6.00	< 4.00	4.00 to 6.00
Cc1cc(S(=O)(=O)N2CCN(C(c3ccccc3)c3ccc(Cl)cc3)CC2)ccc1OC(C)(C)C(=O)O (stereo not drawn) [drawing 116]	4.00 to 6.00	4.00 to 6.00	4.00 to 6.00
Cc1cc(S(=O)(=O)N2CCN(C(c3ccccc3)c3ccccc3)CC2)ccc1OC(C)(C)C(=O)O	4.00 to 6.00	< 4.00	4.00 to 6.00

Reference: patent US20060258683A1, “Para-sulfonyl substituted phenyl compounds as modulators of ppars” (priority 2003, published 2006)
